Earlier results in patent publication US20050202001A1 (priority 2002, published 2005).

How the values were obtained:
[1] = tested on: normal human neonatal melanocytes

COc1cccc(-c2cc(=O)c3ccccc3o2)c1N [PD98059]
melanogenesis [1]: stimulated melanogenesis | melanogenesis (human melanoma cells): stimulated melanogenesis
